From US9340538B2, “Dihydropyrimidine compounds and their application in pharmaceuticals” (SUNSHINE LAKE PHARMA CO., LTD., priority 2013, dated 2016)

These compounds were tested on HBV (assay: In-vitro anti-HBV activity in stable HBV-producing cell line (HepG2.2.15), HBV DNA in culture fluid by qPCR). Conditions: Hepatitis B virus, 168 h; 500 nmol final concentration, HepG2.2.15 cells, HBV DNA in culture media on day 7 post seeding, vs DMSO control; read-out: HBV (% Inh.) (500 nmol).
Assay type: cell-based
Procedure: In-Vitro Anti-HBV Activity of Compounds in Stable HBV-Producing Cell Line (HepG2.2.15)
HBV DNA contents in cell culture fluid were detected by the qPCR-based assay and percents of HBV inhibition by compounds (% Inh) were calculated. Specific procedures are as follows:
HepG2.2.15 cells were seeded into each well of 96-well plates, 40,000 cells per well. Cells were treated with cell culture medium containing compounds 24 hours after cell seeding. Each compound to detected percent inhibition was in duplicate and the final concentration of each compound was 500 nmol in each well. The compound-containing mediums were refreshed on day 4 post cell seeding. Culture media were collected from the HepG2.2.15 plates on day 7 post cell seeding followed by HBV DNA extraction.
HBV DNA extraction: using QIAamp 96 DNA Blood Kit (QIAGEN 51161).
PCR for quantification: PCR mix was prepared according to PCR system; PCR mix was dispensed to 384-well optical reaction plates (special for quantification); The standard diluted proportionally was added; The sample was added; The plates were sealed with optical adhesive film; PCR system was performed according to programs.
Percent of HBV inhibition of DNA replication by compound was calculated using the following equation: % Inh.=[1-HBV DNA quantity of sample/HBV DNA quantity of DMSO control]*100. II. Assay Results

Compound | inhibition at 0.5 µM [%]
CCOC(=O)C1=C(CN2CCOC[C@H]2C(=O)NCCOC(C)=O)NC(c2nccs2)=NC1c1ccc(F)cc1Br (stereo partly drawn) [Example 55, Ethyl 6-(((S)-3-((2-acetoxyethyl)carbamoyl)morpholino)methyl)-4-(2-bromo-4-fluorophenyl)-2-(thiazol-2-yl)-1,4-dihydropyrimidine-5-carboxylate] | 93
CCOC(=O)C1=C(CN2CCOC[C@H]2C(=O)N(C)OC)NC(c2nccs2)=NC1c1ccc(F)cc1Br (stereo partly drawn) [Example 60, Ethyl 4-(2-bromo-4-fluorophenyl)-6-(((S)-3-(methoxy(methyl)carbamoyl)morpholino)methyl)-2-(thiazol-2-yl)-1,4-dihydropyrimidine-5-carboxylate] | 94
CCOC(=O)C1=C(CN2CCOC[C@H]2C(=O)O)NC(c2nc(CC(=O)OC)cs2)=NC1c1ccc(F)cc1Br (stereo partly drawn) [Example 61, (3S)-4-((6-(2-bromo-4-fluorophenyl)-5-(ethoxycarbonyl)-2-(4-(2-methoxy-2-oxoethyl)thiazol-2-yl)-3,6-dihydropyrimidin-4-yl)methyl)morpholine-3-carboxylic acid] | 91.1
CCOC(=O)C1=C(CN2CCOCC2C(=O)O)NC(c2nnc(C)s2)=NC1c1ccc(F)cc1Br (centres unmarked) [Example 69, 4-((6-(2-bromo-4-fluorophenyl)-5-(ethoxycarbonyl)-2-(5-methyl-1,3,4-thiadiazol-2-yl)-3,6-dihydropyrimidin-4-yl)methyl)morpholine-3-carboxylic acid] | 36.5
CCOC(=O)C1=C(CN2CCOCC2C(=O)O)NC(c2nncs2)=NC1c1ccc(Cl)cc1Cl (centres unmarked) [Example 70, 4-((6-(2,4-dichlorophenyl)-5-(ethoxycarbonyl)-2-(1,3,4-thiadiazol-2-yl)-3,6-dihydropyrimidin-4-yl)methyl)morpholine-3-carboxylic acid] | 63.6
CCOC(=O)C1=C(CN2CCOCC2C(=O)O)NC(c2nncs2)=NC1c1ccc(F)cc1Br (centres unmarked) [Example 71, 4-((6-(2-bromo-4-fluorophenyl)-5-(ethoxycarbonyl)-2-(1,3,4-thiadiazol-2-yl)-3,6-dihydropyrimidin-4-yl)methyl)morpholine-3-carboxylic acid] | 43.4
CCOC(=O)C1=C(CN2CCOCC2C(=O)OC(C)C)NC(c2nccs2)=NC1c1ccc(F)cc1Br (centres unmarked) [Example 77, Isopropyl 4-((6-(2-bromo-4-fluorophenyl)-5-(ethoxycarbonyl)-2-(thiazol-2-yl)-3,6-dihydropyrimidin-4-yl)methyl)morpholine-3-carboxylate] | 91.9
CCOC(=O)C1=C(CN2CCOCC2C(=O)OC(C)C)NC(c2nccs2)=NC1c1ccc(Cl)cc1Cl (centres unmarked) [Example 78, Isopropyl 4-((6-(2,4-dichlorophenyl)-5-(ethoxycarbonyl)-2-(thiazol-2-yl)-3,6-dihydropyrimidin-4-yl)methyl)morpholine-3-carboxylate] | 87.9
CCOC(=O)C1=C(CN2CCOCC2C(=O)OCOC(=O)OC(C)C)NC(c2nccs2)=NC1c1ccc(Cl)cc1Cl (centres unmarked) [Example 80, ((Isopropoxycarbonyl)oxy)methyl 4-((6-(2,4-dichlorophenyl)-5-(ethoxycarbonyl)-2-(thiazol-2-yl)-3,6-dihydropyrimidin-4-yl)methyl)morpholine-3-carboxylate] | 91.9
CCOC(=O)C1=C(CN2CCOCC2C(=O)NC(C)C)NC(c2nccs2)=NC1c1ccc(Cl)cc1Cl (centres unmarked) [Example 81, Ethyl 4-(2,4-dichlorophenyl)-6-((3-(isopropylcarbamoyl)morpholino)methyl)-2-(thiazol-2-yl)-1,4-dihydropyrimidine-5-carboxylate] | 91.9
CCOC(=O)C1=C(CN2CCOCC2C(=O)NC(C)C)NC(c2nccs2)=NC1c1ccc(F)cc1Br (centres unmarked) [Example 82, Ethyl 4-(2-bromo-4-fluorophenyl)-6-((3-(isopropylcarbamoyl)morpholino)methyl)-2-(thiazol-2-yl)-1,4-dihydropyrimidine-5-carboxylate] | 96
CCOC(=O)C1=C(CN2CCOC(C(=O)O)C2)NC(c2ncn(C)n2)=NC1c1ccc(F)cc1Br (centres unmarked) [Example 83, 4-((6-(2-bromo-4-fluorophenyl)-5-(ethoxycarbonyl)-2-(1-methyl-1H-1,2,4-triazol-3-yl)-3,6-dihydropyrimidin-4-yl)methyl)morpholine-2-carboxylic acid] | 36
CCOC(=O)C1=C(CN2CCOCC2C(=O)O)NC(c2nc(C(F)(F)F)cs2)=NC1c1ccc(Cl)cc1Cl (centres unmarked) [Example 119, 4-((6-(2,4-dichlorophenyl)-5-(ethoxycarbonyl)-2-(4-(trifluoromethyl)thiazol-2-yl)-3,6-dihydropyrimidin-4-yl)methyl)morpholine-3-carboxylic acid] | 94
CCOC(=O)C1=C(CN2CCOCC2C(=O)O)NC(c2ncc(F)s2)=NC1c1ccc(F)cc1Cl (centres unmarked) [Example 121, 4-((6-(2-chloro-4-fluorophenyl)-5-(ethoxycarbonyl)-2-(5-fluorothiazol-2-yl)-3,6-dihydropyrimidin-4-yl)methyl)morpholine-3-carboxylic acid] | 48.5
CCOC(=O)C1=C(CN2CCOCC2C(=O)O)NC(c2ncc(F)s2)=NC1c1ccc(Cl)cc1Cl (centres unmarked) [Example 122, 4-((6-(2,4-dichlorophenyl)-5-(ethoxycarbonyl)-2-(5-fluorothiazol-2-yl)-3,6-dihydropyrimidin-4-yl)methyl)morpholine-3-carboxylic acid] | 46.2
CCOC(=O)C1=C(CN2CCOCC2C(=O)O)NC(c2ncn(C)n2)=NC1c1ccc(F)cc1Br (centres unmarked) [Example 123, 4-((6-(2-bromo-4-fluorophenyl)-5-(ethoxycarbonyl)-2-(1-methyl-1H-1,2,4-triazol-3-yl)-3,6-dihydropyrimidin-4-yl)methyl)morpholine-3-carboxylic acid] | 37.5
CCOC(=O)C1=C(CN2CCOCC2C(=O)O)NC(c2nccn2C)=NC1c1ccc(F)cc1Br (centres unmarked) [Example 125, 4-((6-(2-bromo-4-fluorophenyl)-5-(ethoxycarbonyl)-2-(1-methyl-1H-imidazol-2-yl)-3,6-dihydropyrimidin-4-yl)methyl)morpholine-3-carboxylic acid] | 92.5
CCOC(=O)C1=C(CN2CCOC(CCCO)C2)NC(c2nccs2)=NC1c1ccc(F)cc1Br (centres unmarked) [Example 133, Ethyl 4-(2-bromo-4-fluorophenyl)-6-((2-(3-hydroxypropyl)morpholino)methyl)-2-(thiazol-2-yl)-1,4-dihydropyrimidine-5-carboxylate] | 92.6
CCOC(=O)C1=C(CN2CCOC(CCC(N)=O)C2)NC(c2nccs2)=NC1c1ccc(F)cc1Br (centres unmarked) [Example 135, Ethyl 6-((2-(3-amino-3-oxopropyl)morpholino)methyl)-4-(2-bromo-4-fluorophenyl)-2-(thiazol-2-yl)-1,4-dihydropyrimidine-5-carboxylate] | 93.3

Same assay, conditions: Hepatitis B virus, HepG2.2.15, 168 h, read-out: HBV (% Inh.) (500 nmol)

Compound | inhibition at 0.5 µM [%]
CCOC(=O)C1=C(CN2CCO[C@H](CO)C2)NC(c2nccs2)=NC1c1ccc(F)cc1Br (stereo partly drawn) [Example 66, Ethyl 4-(2-bromo-4-fluorophenyl)-6-(((S)-2-(hydroxymethyl)morpholino)methyl)-2-(thiazol-2-yl)-1,4-dihydropyrimidine-5-carboxylate] | 88.8
